Measurements taken from patent US10973784B2, “Compositions and methods for treating Alzheimer's disease and Parkinson's disease” (Biotie Therapies, Inc., priority 2016, dated 2021).
Read-outs that look alike come from different tables or passages of the source.

What was measured:
[1] = Pharmacokinetic analysis of SYN120 tablets, multiple dose once daily (Example 9); assay type: in vivo, human; conditions: for Ae % / % Fluctuation / CL renal / half-life: arithmetic mean; for Ae %: urine; for CL renal / Cmax / AUC(0-t) / Tmax / concentration at 14 day / half-life: both sexes, human, oral; for CL renal: plasma and urine, read-out: 0-24 Clr; for Cmax / AUC(0-t) / Tmax / concentration at 14 day / half-life: plasma; for Cmax / AUC(0-t) / concentration at 14 day: geometric mean
Method: PK analysis in a multiple dose study was performed on 28 subjects (10 males and 18 females) on day 1 and on 27 subjects (10 males and 17 females) on day 14 who received SYN120 oral tablets. The dosing interval was once daily, approximately 40 minutes after a standard breakfast, for up to 21 days. The subjects were administered the same dose of SYN120 daily at one of the following doses: 100 mg; 300 mg; and 600 mg. The SYN120 oral tablets used in this study were the 50 mg tablets as described in Example 8.
Plasma samples were prepared from blood samples for PK analysis collected on days 1 and 14 at the following time points: 0, 0.5, 1, 1.5, 2, 3, 4, 6, 8, 12, and 24 hrs postdose. Additional blood samples were taken following administration on Day 14 at 32, 36, 48, 72, and 168 hrs (day 15 through day 21). In addition, on days 4 and 10, predose blood samples were collected, while on day 7, blood samples were collected predose and 4 hrs postdose. […] Mean plasma SYN120 concentrations at Day 1, (FIG. 7A and FIG. 7B), and at Day 14 (FIG. 8A and FIG. 8B) are also provided.

5-HT2C receptor = biological target: T1, 5-HT2C receptor (Homo sapiens, UniProt P28335); conditions: cited from earlier work
T1 sequence (P28335 33-458): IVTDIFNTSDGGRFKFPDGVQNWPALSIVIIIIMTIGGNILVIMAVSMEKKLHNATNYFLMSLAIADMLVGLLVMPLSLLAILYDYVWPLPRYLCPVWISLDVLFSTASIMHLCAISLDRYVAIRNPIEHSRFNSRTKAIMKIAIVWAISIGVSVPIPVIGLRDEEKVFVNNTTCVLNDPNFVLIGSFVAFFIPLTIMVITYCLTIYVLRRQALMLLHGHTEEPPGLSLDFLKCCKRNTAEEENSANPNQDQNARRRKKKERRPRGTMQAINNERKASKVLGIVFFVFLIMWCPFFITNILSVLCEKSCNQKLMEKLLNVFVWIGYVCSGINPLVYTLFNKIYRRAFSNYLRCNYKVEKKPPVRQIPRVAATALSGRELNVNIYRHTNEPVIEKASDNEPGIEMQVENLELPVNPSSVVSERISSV

- % Fluctuation ([1]; Day 14, 100 mg QD): 177%
- Tlast ([1]; Day 14, 100 mg QD, median): 168 h
- % Fluctuation ([1]; Day 14, 300 mg QD): 209%
- Tlast ([1]; Day 14, 300 mg QD, median): 168 h
- % Fluctuation ([1]; Day 14, 600 mg QD): 212%
- Tlast ([1]; Day 14, 600 mg QD, median): 168 h
- CL renal ([1]; 100 mg, Day 1, 100 mg QD): 1.25 mL/min
- CL renal ([1]; 100 mg, Day 14, 100 mg QD): 1.33 mL/min
- CL renal ([1]; 300 mg, Day 1, 300 mg QD): 1.33 mL/min
- CL renal ([1]; 300 mg, Day 14, 300 mg QD): 1.34 mL/min
- CL renal ([1]; 600 mg, Day 1, 600 mg QD): 1.45 mL/min
- CL renal ([1]; 600 mg, Day 14, 600 mg QD): 1.31 mL/min
- Cmax ([1]; 100 mg, Day 1, 100 mg QD): 813 ng/mL
- AUC(0-t) ([1]; 100 mg, Day 1, 100 mg QD, read-out: AUC0-24): 7780 ng·h/mL
- AUC(0-t) ([1]; 100 mg, Day 1, 100 mg QD, read-out: AUC0-last): 7780 ng·h/mL
- Tmax ([1]; 100 mg, Day 1, 100 mg QD, median, read-out: Tmax): 4 h
- Cmax ([1]; 100 mg, Day 14, 100 mg QD): 1240 ng/mL
- AUC(0-t) ([1]; 100 mg, Day 14, 100 mg QD, read-out: AUC0-24): 14200 ng·h/mL
- AUC(0-t) ([1]; 100 mg, Day 14, 100 mg QD, read-out: AUC0-last): 19200 ng·h/mL
- concentration at 14 day ([1]; 100 mg, Day 14, 100 mg QD, read-out: Cmin): 201 ng/mL
- concentration at 14 day ([1]; 100 mg, Day 14, 100 mg QD, read-out: Css): 591 ng/mL
- Tmax ([1]; 100 mg, Day 14, 100 mg QD, median, read-out: Tmax): 3 h
- Cmax ([1]; 300 mg, Day 1, 300 mg QD): 2750 ng/mL
- AUC(0-t) ([1]; 300 mg, Day 1, 300 mg QD, read-out: AUC0-24): 29500 ng·h/mL
- AUC(0-t) ([1]; 300 mg, Day 1, 300 mg QD, read-out: AUC0-last): 29500 ng·h/mL
- Tmax ([1]; 300 mg, Day 1, 300 mg QD, median, read-out: Tmax): 4 h
- Cmax ([1]; 300 mg, Day 14, 300 mg QD): 3470 ng/mL
- AUC(0-t) ([1]; 300 mg, Day 14, 300 mg QD, read-out: AUC0-24): 36000 ng·h/mL
- AUC(0-t) ([1]; 300 mg, Day 14, 300 mg QD, read-out: AUC0-last): 45700 ng·h/mL
- concentration at 14 day ([1]; 300 mg, Day 14, 300 mg QD, read-out: Cmin): 357 ng/mL
- concentration at 14 day ([1]; 300 mg, Day 14, 300 mg QD, read-out: Css): 1500 ng/mL
- Tmax ([1]; 300 mg, Day 14, 300 mg QD, median, read-out: Tmax): 3 h
- Cmax ([1]; 600 mg, Day 1, 600 mg QD): 5180 ng/mL
- AUC(0-t) ([1]; 600 mg, Day 1, 600 mg QD, read-out: AUC0-24): 59600 ng·h/mL
- AUC(0-t) ([1]; 600 mg, Day 1, 600 mg QD, read-out: AUC0-last): 59600 ng·h/mL
- Tmax ([1]; 600 mg, Day 1, 600 mg QD, median, read-out: Tmax): 4 h
- Cmax ([1]; 600 mg, Day 14, 600 mg QD): 5460 ng/mL
- AUC(0-t) ([1]; 600 mg, Day 14, 600 mg QD, read-out: AUC0-24): 56100 ng·h/mL
- AUC(0-t) ([1]; 600 mg, Day 14, 600 mg QD, read-out: AUC0-last): 74000 ng·h/mL
- concentration at 14 day ([1]; 600 mg, Day 14, 600 mg QD, read-out: Cmin): 520 ng/mL
- concentration at 14 day ([1]; 600 mg, Day 14, 600 mg QD, read-out: Css): 2340 ng/mL
- Tmax ([1]; 600 mg, Day 14, 600 mg QD, median, read-out: Tmax): 3.51 h
- Tmax ([1]; Day 14, across dose groups, read-out: median Tmax): 3 to 3.51 h
- Tmax ([1]; Study Day 1, each dose group, read-out: median Tmax): 4 h
- half-life ([1]; Day 14, 100 mg QD): 15.4 h
- half-life ([1]; Day 14, 300 mg QD): 15.5 h
- half-life ([1]; Day 14, 600 mg QD, n = 7): 15 h
SMILES: NC(=O)NC[C@@H]1CCCc2cc(S(=O)(=O)c3cccc(F)c3)ccc21 [SYN120]
- Ae % ([1]; Day 1, 100 mg QD): 0.610%
- Ae % ([1]; Day 1, 300 mg QD): 0.857%
- Ae % ([1]; Day 1, 600 mg QD): 0.997%
- Ae % ([1]; Day 14, 100 mg QD): 1.15%
- Ae % ([1]; Day 14, 300 mg QD): 0.988%
- Ae % ([1]; Day 14, 600 mg QD): 0.756%
- pKi (5-HT2C receptor): 8.1
